Laboratory results from publication PMC8545225 (Nanoscale, 2021).

Assay: 2D DOSY NMR diffusion measurement and hydrodynamic size
Assay type: physicochemical
Details: DOSY NMR in D2O, free ligands at 289.75 K

| Structure (SMILES) | Diffusion coefficient ds |
| --- | --- |
| O=C(O)c1ccc(P(c2ccccc2)c2ccccc2)cc1 [DPPBA, 4-(diphenylphosphino)benzoic acid] | 1.37 × 10^−9 m^2·s^−1 |
| O=S(=O)([O-])c1cccc(P(c2ccccc2)c2ccccc2)c1.[Na+] [TPPMS, triphenylphosphine monosulfonate] | 2.42 × 10^−10 m^2·s^−1 |
